Experimental data as given in patent US20090074885A1, “Reversible Hydrophobic Modification of Drugs for Improved Delivery to Cells” (Roche Madison Inc., priority 2003, published 2009).

Columns and labels:
MC38 tumor = assay: Survival after LABI in MC38 tumor bearing mice; type: in vivo, C57BL mice; details: 0.150 μmol by LABI, compared to hydrolyzed C12PMMA-PI
Protocol: FIG. 13. Days of survival following LABI delivery of C12PMMA-PI (III) or hydrolyzed C12PMMA-PI to C57BL mice. Following three weeks of MC38 tumor development C12PMMA-PI or Hydrolyzed C12PMMA-PI (0.150 μmol in 20 μl DMSO, 200 μl ITG) were delivered by LABI. The mouse abdomen was closed 4 min after drug treatment and the animals were monitored for survival time.
In vivo antitumor effect following a liver arterial bolus injection with a RRH-PI to MC 38 tumor bearing mice. LABI was conducted as previously described in order to monitor the antitumor effect of an RRH-PI prodrug. In the experiment, III (n=11) or hydrolyzed C12PMMA-PI (n=9) were injected as previously described, the mouse abdomen was closed after drug treatment and the animals were monitored for survival time. Statistical analysis was conducted using a t-test (two tailed distribution and two sample—unequal variance, Excel).

cells = assay: Testing of mixing chamber: PI uptake in cells; type: cell-based; details: PI in DMF and isotonic glucose through mixing chamber
Description: Development of a Mixing Chamber. Due to the instability of the RRH-PI prodrugs in water, it was necessary to dissolve them in a small amount of pharmaceutically acceptable organic solvent (OS) and mix them with an aqueous solution immediately prior to delivery. Rapid and efficient mixing was critical for optimum delivery and minimalization of toxicity due to the organic solvent. A passive mixing chamber with colliding flows was utilized to mix the drug/RRH-prodrug (dissolved in a carrier solvent such as an organic solvent) with an aqueous solution immediately prior use. Two syringe pumps (Harvard Pumps, PHD 2000) were utilized to deliver the solutions to the mixing chamber. Typically mixtures were 1:10 by volume with 0.67 μl of PI or RRH-PI/OS solution (7.48 mM) diluted with 6.7 μl of isotonic glucose (ITG), buffer, or media per sec, for a total delivery volume of 220 μl (0.150 μmol of PI or RRH-PI) over 30 sec (final organic solvent concentration of 9.1% by vol.).
The mixing chamber (FIG. 3) was constructed from 18 G stainless steel tubing (38 mm in length) by drilling a 0.2 mm hole at a 45 degree angle in the tubing wall and then inserting 30 G stainless steel tubing. The 30 G stainless tubing was angled and advanced into the 18 G tubing so as to be centered within the larger tubing and then soldered in place. […]

| Structure (SMILES) | survival (MC38 tumor) | PI uptake in cells (cells) |
| --- | --- | --- |
| CCCCCCCCCCCCNC(=O)CCC(=CCC(=O)O)C(=O)Nc1ccc2c(c1)c(-c1ccccc1)[n+](CCC[N+](C)(CC)CC)c1cc(NC(=O)C(=CCC(=O)O)CCC(=O)NCCCCCCCCCCCC)ccc21.[I-].[I-] [III, 3,8-bis-[2-(2 carboxyethylidene)-4-(dodecarbamoyl)-1-oxo-butylamine] 5-(3,3-diethyl-3-methylammoniumpropyl) 6-phenyl phenanthridinium diiodide] | increased survival |  |
| CC[N+](C)(CC)CCC[n+]1c(-c2ccccc2)c2cc(N)ccc2c2ccc(N)cc21.[I-].[I-] [PI, Propidium iodide, reference compound] |  | very little PI uptake in cells |
